Laboratory results: PubChem BioAssay (NCI)
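Cells were grown in 96-well plates and exposed to each compound for 48 hours at five concentrations; endpoints were interpolated linearly between bracketing concentrations, or set to the highest concentration if not reached. GI50 marks 50% less growth. TGI marks complete inhibition of growth.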

Experiments:
Assay in all cases: DTP human tumour cell line panel, 48 h
[1] = tested on: MCF7 breast
[2] = tested on: SF-539 CNS
[3] = tested on: PC-3 prostate
[4] = tested on: SN12C renal
[5] = tested on: A498 renal
[6] = tested on: SNB-75 CNS
[7] = tested on: COLO 205 colon
[8] = tested on: SR leukemia
[9] = tested on: OVCAR-5 ovarian
[10] = tested on: CAKI-1 renal

Compound | TGI [1] | TGI [2] | TGI [3] | TGI [4] | TGI [5] | TGI [6] | TGI [7] | TGI [8] | TGI [9] | GI50 [1] | GI50 [2] | GI50 [3] | GI50 [10] | TGI [10] | GI50 [4] | GI50 [5] | GI50 [6] | GI50 [7] | GI50 [8] | GI50 [9]
Nc1nc(=O)c2[nH]cnc2n1O | > 100 µM | > 100 µM | > 100 µM | > 100 µM | > 100 µM | > 100 µM | > 100 µM | > 100 µM | > 100 µM | – | – | – | – | – | – | – | – | – | – | –
COc1ccc(-c2c(-c3cc4c(c(OC)c3OC)OCO4)noc2N)cc1 | > 77.5 µM | – | > 100 µM | > 100 µM | > 100 µM | 0.489 µM | 1.25 µM | 69.8 µM | > 100 µM | 0.282 µM | 0.32 µM | 0.321 µM | 0.404 µM | > 100 µM | 0.792 µM | 0.374 µM | 0.138 µM | 0.277 µM | 0.0376 µM | 2.43 µM
COc1ccccc1CN=C1NC(=O)/C(=C/c2ccc3ncccc3c2)S1 | > 25 µM | > 20.3 µM | > 25 µM | > 25 µM | 15.8 µM | > 25 µM | > 24.1 µM | > 17.9 µM | > 25 µM | 5.4 µM | 5.28 µM | 18.5 µM | 6.84 µM | > 25 µM | 7.8 µM | 4.49 µM | 3.9 µM | 5.92 µM | 1.87 µM | 16.3 µM
COc1ccc2c(c1)[n+]([O-])c(/C(C)=N/NC(N)=S)c(C)[n+]2[O-] | > 100 µM | 97.9 µM | > 100 µM | > 100 µM | > 100 µM | > 100 µM | > 100 µM | 61.5 µM | > 100 µM | – | – | – | – | > 100 µM | – | – | – | – | – | –
Oc1ccccc1/C=N/Nc1nc2ccccc2s1 | > 100 µM | > 100 µM | > 100 µM | > 100 µM | > 100 µM | 32.2 µM | > 100 µM | > 100 µM | > 100 µM | 1.16 µM | 4.67 µM | 11 µM | 2.95 µM | > 100 µM | 22.9 µM | 32.4 µM | 6.55 µM | 4.7 µM | 7.71 µM | > 100 µM
O=C(NCCN1CCOCC1)Nc1nc2ccc(Sc3nnc4ccc(-c5ccc(F)cc5)nn34)cc2s1 | > 100 µM | > 100 µM | > 100 µM | > 100 µM | > 100 µM | – | > 33.3 µM | > 100 µM | > 100 µM | – | 2.94 µM | > 100 µM | – | > 100 µM | – | 80.6 µM | – | 4.53 µM | 5.04 µM | > 39 µM
O=C1c2cccc3c([N+](=O)[O-])ccc(c23)C(=O)N1CCCCl | > 10 µM | > 10 µM | > 10 µM | > 10 µM | > 10 µM | > 10 µM | > 10 µM | > 10 µM | > 10 µM | 3.03 µM | > 10 µM | 7.49 µM | > 10 µM | > 10 µM | 5 µM | > 10 µM | 2.86 µM | > 10 µM | 0.334 µM | > 10 µM
COc1ccc(NC(=O)COc2ccccc2)c(C(N)=O)c1 | > 100 µM | 4.01 µM | > 100 µM | > 100 µM | 8.38 µM | 11.2 µM | 6.56 µM | > 50.2 µM | > 100 µM | 0.538 µM | 0.506 µM | 0.712 µM | 1.09 µM | > 100 µM | 5.53 µM | 0.757 µM | 0.398 µM | 0.505 µM | 0.466 µM | 7.14 µM
C=C(c1ccccc1)[C@@]1(O)CCCC[C@H]1NC(c1ccccc1)c1ccccc1 | – | 32.7 µM | – | 29 µM | 27.7 µM | 63.6 µM | 28 µM | 6.98 µM | 27 µM | – | – | – | – | 21.4 µM | – | – | – | – | – | –
Cc1cc(NCCCNc2ccnc3cc(Cl)ccc23)nc(Nc2ccc(C(=O)N3CCCCC3)cc2)n1 | 4.09 µM | 3.56 µM | 14.4 µM | 5.52 µM | 5.07 µM | 3.69 µM | 3.62 µM | 4.24 µM | 18.5 µM | 1.82 µM | 1.89 µM | 3.9 µM | 2.51 µM | 7.38 µM | 2.33 µM | 1.89 µM | 1.69 µM | 1.8 µM | 1.72 µM | 4.5 µM
COc1cc(-c2nn(-c3ccc(NC(=O)Nc4ccc(Cl)c(C(F)(F)F)c4)cc3)cc2-c2ccncc2)ccc1Cl | 8.28 µM | 3.98 µM | > 100 µM | 8.82 µM | 3.54 µM | 4.03 µM | 3.29 µM | – | 5.68 µM | 2.51 µM | 1.76 µM | 1.67 µM | 1.29 µM | 3.54 µM | 2.6 µM | 1.41 µM | 1.28 µM | 1.67 µM | – | 1.94 µM
CC12CCC(=O)N1c1cc([N+](=O)[O-])ccc1N2 (centres undefined) | – | > 100 µM | – | > 100 µM | > 100 µM | > 100 µM | > 100 µM | > 100 µM | – | – | – | – | – | – | – | – | – | – | – | –
CC1=CC[C@@H]2[C@@H](CC[C@@]2(C)O)C(C)(C)[C@H]1CC[C@@H]1[C@@]2(C)CC[C@@H](O)C(C)(C)O[C@@H]2CC[C@]1(C)O | > 100 µM | 44 µM | > 100 µM | 57.2 µM | 29.3 µM | – | 38.1 µM | 42.8 µM | > 100 µM | – | – | – | – | 54.2 µM | – | – | – | – | – | –
O=C(/C=C/c1ccccc1)Nc1ncc(Cc2ccccc2)s1 | > 100 µM | 0.732 µM | > 100 µM | > 52 µM | 3.39 µM | 1.99 µM | 2.13 µM | 10.2 µM | 35.8 µM | 0.139 µM | 0.206 µM | 0.275 µM | 0.0902 µM | > 50.2 µM | 0.597 µM | 0.24 µM | 0.138 µM | 0.288 µM | 0.0501 µM | 0.469 µM
COc1cc(/C=C/C(=O)c2ccc(F)cc2)ccc1OCCCCOc1cc2c(cc1OC)C(=O)N1CCCC1C=N2 (centres undefined) | 6.12 µM | 1.62 µM | 12.8 µM | 15.9 µM | 5.48 µM | 15 µM | 9.19 µM | 0.841 µM | > 26.6 µM | 0.318 µM | 0.641 µM | 0.923 µM | 1.12 µM | 25.6 µM | 1.68 µM | 0.882 µM | 0.994 µM | 2.11 µM | 0.188 µM | 3.85 µM
